How the values were obtained:
[1] = system: resistance arteries; experiment: Ex-vivo insulin bioactivity, wire myograph; format: cell-based, Wistar rats; settings: pre-constriction with thromboxane mimetic [U44169]
Experimental: A pressure myograph which allowed luminal application of drug provided initial measures of sensitivity. In the pressure system, arteries mounted on opposing glass cannula (outer dimension 80 μm) were gradually pressurized from <5 mmHg to 40 mmHg over 15 mins and held for 15 mins more before starting the assay. Responses were measured using proprietary video analysis software (MyoView). […] The arteries were then exposed to increasing concentrations of insulin either directly into the bath (wire) or by gradual infusion directly into the lumen via a fetal microcannulae inserted to the tip of the glass mounting cannula, at a constant pressure (pressure). Following pre-constriction with thromboxane mimetic [U44169] the insulin-mediated vasorelaxation profile is typical for insulin and exerts its effect mainly via the activation of nitric oxide synthase and the subsequent release of endothelial nitric oxide.

[2] = Laser diffraction particle size analysis (Mastersizer 2000); format: physicochemical; settings: continuous flow precipitator, into isopropanol; coated samples 10% protein loading
Experimental: Laser diffraction particle size analysis was carried out on bioactive coated particles using a Mastersizer 2000. Briefly, enough PCMC was added to the sample holder of the Mastersizer 2000 containing 60 ml of 2-propanol to ensure a laser obscuration of between 10 and 20%. Measurements were then taken using a previously set up Standard Operating Procedure. d(0.1)(μm)=10% of the particles are below this particle size d(0.5)(μm)=50% of the particles are above and below this particle size d(0.9)(μm)=90% of the particles are below this particle size. Span=d(0.9)−d(0.1)/d(0.5)
Span gives a good indication of population homogeneity.

[3] = Zeta potential (Malvern Zetasizer, suspension in acetonitrile); format: physicochemical; settings: for Zeta potential (sign): dilute suspension in acetonitrile; for Zeta potential (mV): microcrystals in non-aqueous medium, precipitation pH 5.59-7.02 as given per sample
Description: The core microcrystal and protein coating that are characteristic of protein coated coated microcrystals arise from a single continuous self-assembly process. In order to assess whether electrostatic binding of the bioactive molecule to pre-formed microcrystals might be important in the mechanism of this process it was of interest to measure the surface potential of the microcrystals in a non-aqueous medium. The liquid layer surrounding a charged particle exists as two parts; an inner region (Stern layer) where the ions are strongly bound and an outer (diffuse) region where they are less firmly associated. Within the diffuse layer there is a notional boundary inside which the ions and particles form a stable entity. When a particle moves (e.g. due to gravity), ions within the boundary move too. […] The potential at this boundary (surface of hydrodynamic shear) is the zeta potential. The sign and magnitude of the zeta potential depends on the surface charge of the particle with for example a negative zeta potential indicating a particle with an overall negative charge. A Malvern Zetasizer that employs laser Doppler velocimetry was used to measure the sign and approximate magnitude of the Zeta potential of microcrystals produced by precipitation of various core materials at fixed pH. The measurements were made on pre-prepared microcrystals or protein coated microcrystals suspended as dilute suspension in acetonitrile. A polystyrene latex was used to calibrate the machine. […] If electrostatic binding is important to the mechanism of formation it would be expected that only biomolecules with an overall positive charge would be expected to form a coating on these negatively charged materials. The charge on a protein is a function of pH. It will be negative at pH values above the pI and positive at a pH below the pI.

[4] = above 80% RH
Experimental: The uptake of water by bioactive molecule coated particles produced by the present co-precipitation process and of the core material precipitated alone under a controlled humidified environment was carried out by Dynamic Vapor Sorption (DVS) using Dynamic Vapor Sorption 1000 (Surface Measurement Systems).
The Experimental set-up was as follows.
The DVS used a 2 full-cycle experimental Special Automatic Operation (SAO) protocol that included an initial drying stage at 0% Relative Humidity (RH). […] This was proceeded by an identical desorption cycle down to 0% RH. This cycle was repeated. The following criteria was used to control the DVS stage change: either the rate of change of the increase in mass i.e. dm/dt dropped to 0.002, or the maximum stage time was 2000 minutes.
Prior to introduction of the sample, the balance was tared and the instrument was allowed to equilibrate until a stable baseline was observed. The particles were then loaded and the initial weight recorded, followed by switching on the SAO. The experiment ran until the completion of the SAO.

[5] = HPLC analysis of insulin after reconstitution; settings: retained in the same aqueous solution used for co-precipitation
[6] = system: resistance arteries; experiment: Ex-vivo insulin bioactivity, pressure myograph; format: cell-based, Wistar rats; settings: mean of 3 (SD)
Experimental: Insulin bioactivity assays were carried out on resistance arteries ([…]) isolated from 12 week old male Wistar rats studied in heated (37° C.) and gassed (95% O2/5% CO2) physiological salt solution (PSS) to achieve a pH of 7.4. A pressure myograph which allowed luminal application of drug provided initial measures of sensitivity. In the pressure system, arteries mounted on opposing glass cannula (outer dimension 80 μm) were gradually pressurized from <5 mmHg to 40 mmHg over 15 mins and held for 15 mins more before starting the assay. Responses were measured using proprietary video analysis software (MyoView). The pressure myograph is able to detect the vasodilatory effect of insulin at very low concentrations (1×10^−10 M).

Question: With `CC(C)C(N)C(=O)O` (racemic) [D,L-valine] as the compound, how does the insulin mediated vasorelaxation [1] read?
Answer: no bioactivity

Question: What about the Span [2] of the same compound?
Answer: 1.32

Question: What about the “d(0.5)/microns” value [2] of the same compound?
Answer: 21.810 microns

Question: What about the “Zeta potential (sign)” value [3] of the same compound?
Answer: negative

Question: And the “Zeta potential (mV)” value [3]?
Answer: −19.6 mV

Question: For `NC(=O)CC[C@H](N)C(=O)O` [L-glutamine], which Span [2] is on record?
Answer: 1.88

Question: What about the “d(0.5)/microns” value [2] of the same compound?
Answer: 36.373 microns

Question: What about the “Zeta potential (sign)” value [3] of the same compound?
Answer: negative

Question: And the “Zeta potential (mV)” value [3]?
Answer: −54.8 mV

Question: Which water uptake [4] does the source give for `NCC(=O)O` [Glycine, glycine] here?
Answer: start to take up appreciable amounts of water

Question: What about the Span [2] of the same compound?
Answer: 1.72

Question: And the “d(0.5)/microns” value [2]?
Answer: 58.370 microns

Question: What about the “Zeta potential (sign)” value [3] of the same compound?
Answer: negative

Question: And the “Zeta potential (mV)” value [3]?
Answer: −49.7 mV

Question: For “Commercial Insulin: USP bovine pancreas insulin control”, which “time to significant changes” value [5] is on record?
Answer: less than 30 minutes

Question: And the “insulin mediated relaxation to noradrenaline pre-constriction (100=100% constriction)” value ([6]; Log M −9)?
Answer: 65 (23) %

Question: What about the “insulin mediated relaxation to noradrenaline pre-constriction (100=100% constriction)” value ([6]; Log M −10) of the same compound?
Answer: 84 (7) %

Question: And the “insulin mediated relaxation to noradrenaline pre-constriction (100=100% constriction)” value ([6]; Log M −11)?
Answer: 100 (0) %
